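Tested at 5 concentrations; 48 h exposure; 96-well plates; endpoints linearly interpolated, else capped at highest concentration. The concentration for 50% growth inhibition is given as GI50. TGI denotes the concentration required for complete inhibition of growth.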
Experiments:
Assay in all cases: NCI anticancer screen, dose series, 48 h
T-47D breast = tested on: T-47D breast
OVCAR-3 ovarian = tested on: OVCAR-3 ovarian
KM12 colon = tested on: KM12 colon
SR leukemia = tested on: SR leukemia
SF-268 CNS = tested on: SF-268 CNS
MDA-MB-468 breast = tested on: MDA-MB-468 breast
CCRF-CEM leukemia = tested on: CCRF-CEM leukemia
A498 renal = tested on: A498 renal
HCT-15 colon = tested on: HCT-15 colon
SNB-19 CNS = tested on: SNB-19 CNS
HL-60(TB) leukemia = tested on: HL-60(TB) leukemia
HT29 colon = tested on: HT29 colon
HOP-62 NSCLC = tested on: HOP-62 NSCLC
NCI-H23 lung = tested on: NCI-H23 lung
SN12C renal = tested on: SN12C renal
NCI-H522 lung = tested on: NCI-H522 lung
HCT-116 colon = tested on: HCT-116 colon
MDA-MB-231 breast = tested on: MDA-MB-231 breast
SK-MEL-2 melanoma = tested on: SK-MEL-2 melanoma
U251 CNS = tested on: U251 CNS
SK-MEL-5 melanoma = tested on: SK-MEL-5 melanoma
786-0 renal = tested on: 786-0 renal
SK-OV-3 ovarian = tested on: SK-OV-3 ovarian
CAKI-1 renal = tested on: CAKI-1 renal
HOP-92 NSCLC = tested on: HOP-92 NSCLC
SNB-75 CNS = tested on: SNB-75 CNS
NCI-H226 lung = tested on: NCI-H226 lung
SW-620 colon = tested on: SW-620 colon
UACC-62 melanoma = tested on: UACC-62 melanoma
COLO 205 colon = tested on: COLO 205 colon
OVCAR-8 ovarian = tested on: OVCAR-8 ovarian
LOX IMVI melanoma = tested on: LOX IMVI melanoma
PC-3 prostate = tested on: PC-3 prostate
MALME-3M melanoma = tested on: MALME-3M melanoma
SF-539 CNS = tested on: SF-539 CNS
OVCAR-5 ovarian = tested on: OVCAR-5 ovarian
A549 NSCLC = tested on: A549 NSCLC
TK-10 renal = tested on: TK-10 renal
RXF 393 renal = tested on: RXF 393 renal
RPMI-8226 leukemia = tested on: RPMI-8226 leukemia
EKVX NSCLC = tested on: EKVX NSCLC
HS 578T breast = tested on: HS 578T breast
IGROV1 ovarian = tested on: IGROV1 ovarian
UACC-257 melanoma = tested on: UACC-257 melanoma
SK-MEL-28 melanoma = tested on: SK-MEL-28 melanoma
BT-549 breast = tested on: BT-549 breast
DU-145 prostate = tested on: DU-145 prostate
MDA-MB-435 = tested on: MDA-MB-435
OVCAR-4 ovarian = tested on: OVCAR-4 ovarian
HCC-2998 colon = tested on: HCC-2998 colon
SF-295 CNS = tested on: SF-295 CNS
NCI/ADR-RES ovarian = tested on: NCI/ADR-RES ovarian
ACHN renal = tested on: ACHN renal
M14 melanoma = tested on: M14 melanoma
UO-31 renal = tested on: UO-31 renal
K-562 leukemia = tested on: K-562 leukemia
MCF7 breast = tested on: MCF7 breast
MOLT-4 leukemia = tested on: MOLT-4 leukemia
NCI-H460 lung = tested on: NCI-H460 lung

SMILES: CCOc1ccccc1[C@H]1C(C(=O)c2ccc(Cl)cc2)C2(N[C@@H]1c1ccccc1)C(=O)Nc1ccc(Br)cc12 (stereo partly drawn)
- GI50 (T-47D breast): 4.05 µM
- TGI (T-47D breast): > 34.5 µM
- GI50 (OVCAR-3 ovarian): 5.07 µM
- TGI (OVCAR-3 ovarian): 12.8 µM
- GI50 (KM12 colon): 6 µM
- TGI (KM12 colon): 20.4 µM
- GI50 (SR leukemia): 5.17 µM
- TGI (SR leukemia): 16.3 µM
- GI50 (SF-268 CNS): 6.2 µM
- TGI (SF-268 CNS): 24.4 µM
- GI50 (MDA-MB-468 breast): 3.46 µM
- TGI (MDA-MB-468 breast): 12.6 µM
- GI50 (CCRF-CEM leukemia): 22.8 µM
- TGI (CCRF-CEM leukemia): > 34.5 µM
- GI50 (A498 renal): 4.45 µM
- TGI (A498 renal): 13.7 µM
- GI50 (HCT-15 colon): 7.51 µM
- TGI (HCT-15 colon): 33.3 µM
- GI50 (SNB-19 CNS): 9.14 µM
- TGI (SNB-19 CNS): > 34.5 µM
- GI50 (HL-60(TB) leukemia): 4.77 µM
- TGI (HL-60(TB) leukemia): 16.3 µM
- GI50 (HT29 colon): 4.46 µM
- TGI (HT29 colon): 10.1 µM
- GI50 (HOP-62 NSCLC): 5.62 µM
- TGI (HOP-62 NSCLC): 13.5 µM
- GI50 (NCI-H23 lung): 5.43 µM
- TGI (NCI-H23 lung): 13.8 µM
- GI50 (SN12C renal): 4.46 µM
- TGI (SN12C renal): 9.03 µM
- GI50 (NCI-H522 lung): 4.41 µM
- TGI (NCI-H522 lung): 13.4 µM
- GI50 (HCT-116 colon): 4.76 µM
- TGI (HCT-116 colon): 11 µM
- GI50 (MDA-MB-231 breast): 4.04 µM
- TGI (MDA-MB-231 breast): 8.87 µM
- GI50 (SK-MEL-2 melanoma): 5.59 µM
- TGI (SK-MEL-2 melanoma): 12.4 µM
- GI50 (U251 CNS): 5.72 µM
- TGI (U251 CNS): 13.9 µM
- GI50 (SK-MEL-5 melanoma): 5.41 µM
- TGI (SK-MEL-5 melanoma): 10.8 µM
- GI50 (786-0 renal): 5.76 µM
- TGI (786-0 renal): 17.6 µM
- GI50 (SK-OV-3 ovarian): 9.66 µM
- TGI (SK-OV-3 ovarian): > 34.5 µM
- GI50 (CAKI-1 renal): 2.92 µM
- TGI (CAKI-1 renal): > 34.5 µM
- GI50 (HOP-92 NSCLC): 5.42 µM
- TGI (HOP-92 NSCLC): 14.6 µM
- GI50 (SNB-75 CNS): 4.2 µM
- TGI (SNB-75 CNS): 25 µM
- GI50 (NCI-H226 lung): 4.32 µM
- TGI (NCI-H226 lung): 10.6 µM
- GI50 (SW-620 colon): 6.55 µM
- TGI (SW-620 colon): 19 µM
- GI50 (UACC-62 melanoma): 3.45 µM
- TGI (UACC-62 melanoma): 7.98 µM
- GI50 (COLO 205 colon): 5.35 µM
- TGI (COLO 205 colon): 10.6 µM
- GI50 (OVCAR-8 ovarian): 6.06 µM
- TGI (OVCAR-8 ovarian): 19.3 µM
- GI50 (LOX IMVI melanoma): 4.17 µM
- TGI (LOX IMVI melanoma): 8.44 µM
- GI50 (PC-3 prostate): 3.6 µM
- TGI (PC-3 prostate): > 34.5 µM
- GI50 (MALME-3M melanoma): 5.7 µM
- TGI (MALME-3M melanoma): 12.1 µM
- GI50 (SF-539 CNS): 7.93 µM
- TGI (SF-539 CNS): 20.2 µM
- GI50 (OVCAR-5 ovarian): 7 µM
- TGI (OVCAR-5 ovarian): 24.5 µM
- GI50 (A549 NSCLC): 6.58 µM
- TGI (A549 NSCLC): > 34.5 µM
- GI50 (TK-10 renal): 8.22 µM
- TGI (TK-10 renal): 28.5 µM
- GI50 (RXF 393 renal): 3.8 µM
- TGI (RXF 393 renal): 9.29 µM
- GI50 (RPMI-8226 leukemia): 6.69 µM
- TGI (RPMI-8226 leukemia): > 34.5 µM
- GI50 (EKVX NSCLC): 7.9 µM
- TGI (EKVX NSCLC): > 34.5 µM
- GI50 (HS 578T breast): 4.77 µM
- TGI (HS 578T breast): 15.2 µM
- GI50 (IGROV1 ovarian): 4.88 µM
- TGI (IGROV1 ovarian): 21.2 µM
- GI50 (UACC-257 melanoma): 5.86 µM
- TGI (UACC-257 melanoma): 17.6 µM
- GI50 (SK-MEL-28 melanoma): 6.28 µM
- TGI (SK-MEL-28 melanoma): 15.7 µM
- GI50 (BT-549 breast): 5.3 µM
- TGI (BT-549 breast): 10.8 µM
- GI50 (DU-145 prostate): 8.88 µM
- TGI (DU-145 prostate): 32.2 µM
- GI50 (MDA-MB-435): 5.55 µM
- TGI (MDA-MB-435): 12.7 µM
- GI50 (OVCAR-4 ovarian): 8.09 µM
- TGI (OVCAR-4 ovarian): > 34.5 µM
- GI50 (HCC-2998 colon): 4.88 µM
- TGI (HCC-2998 colon): 13 µM
- GI50 (SF-295 CNS): 5.79 µM
- TGI (SF-295 CNS): 21.6 µM
- GI50 (NCI/ADR-RES ovarian): 5.25 µM
- TGI (NCI/ADR-RES ovarian): 13 µM
- GI50 (ACHN renal): 7.25 µM
- TGI (ACHN renal): > 34.5 µM
- GI50 (M14 melanoma): 5.55 µM
- TGI (M14 melanoma): 14.5 µM
- GI50 (UO-31 renal): 4.99 µM
- TGI (UO-31 renal): 20.8 µM
- GI50 (K-562 leukemia): 7.41 µM
- TGI (K-562 leukemia): > 34.5 µM
- GI50 (MCF7 breast): 6.45 µM
- TGI (MCF7 breast): 29.9 µM
- GI50 (MOLT-4 leukemia): 4.46 µM
- TGI (MOLT-4 leukemia): 19.8 µM
- GI50 (NCI-H460 lung): 5.11 µM
- TGI (NCI-H460 lung): 10.8 µM

Source: PubChem BioAssay (NCI)
